Data as given in patent US20250382250A1, “STILBENE DERIVATIVE AS AHR AGONIST AND USE THEREOF” (NANJING GRITPHARMACO., LTD., priority 2022, published 2025).
Marks after values point to notes of the source that are not given here.

Legend:
atopic dermatitis = experiment: DNFB-induced atopic dermatitis mouse model (AD Score); format: in vivo, BALB/C mice; design: scale not given here; settings: DNFB mice
Description: 56 clean-grade BALB/C mice aged 6-8 weeks were subjected to 5 days of adaptive feeding and then randomized into 7 groups of 8 mice each: • A. Blank control group • B. Modeling+solvent group • C. Modeling+blank matrix group • D. Modeling+positive drug mometasone furoate group • E. Modeling+1 wt % of benvitimod group • F. […] The animal experiments were conducted in accordance with the Experimental Animal Feeding, Management and Use Guidelines of China Pharmaceutical University and in compliance with animal study ethics and regulations. As shown in the above procedures, the solvent control or DNFB was given in the morning for modeling; from day 5, the test compound ointment was administered once every afternoon at 50 mg/dose evenly on the skin surface. The specific administration method is as shown above; Specific procedures: […] Severity of atopic dermatitis was scored using the AD Score criteria The severity of the appearance of dermatitis was evaluated based on 4 indicators: A. erythema/bleeding; B. dryness; C. effusion/crusting; D. edema.

IMQ-induced psoriasis = IMQ-induced psoriasis in mice (PASI score); format: in vivo, KM mice; settings: for PASI score (folds, scales, erythema): IMQ mice, 1.2 wt % in blank matrix, 62.5 mg topical
Description: • 1) The efficacy on IMQ-induced psoriasis in mice by compound 6 # was evaluated.
[drawing 91] • 2) Grouping • (1) Petrolatum+blank matrix group, 10 mice; • (2) IMQ+blank matrix group, 10 mice; • (3) IMQ+compound 6 #group (1.2 wt % in blank matrix), 10 mice. • IMQ: imiquimod • 3) Formulation • IMQ: 5% imiquimod (imiquimod was used for inducing psoriasis on the skin of modeling mice) 1.2% compound 6 #formulation was prepared in blank matrix • 4) Animals • Species and strain: SPF-grade KM mice, male • Weight: 35-40 g • Source: SPF (Beijing) Biotechnology Co., Ltd. • Housing conditions: air-conditioned room, with a temperature of 18-26° C. and a relative humidity of 20%-60%. • 5) Procedures
Skin pretreatment: Mice were given free access to water and food. After 5 days of adaptation in the animal room, the hair on the back of the mice within an area of 2 cm×2.5 cm was shaved. The area was treated with a depilatory cream for 30 s-1 min, and then the cream was removed with cotton pads. Randomization: 24 h after depilation, […] by weight: petrolatum+blank matrix group (10 mice); IMQ+blank matrix group (10 mice); IMQ+compound 6 #group (1.2% compound in blank matrix) (10 mice).
Modeling and treatment: 62.5 mg of 5% imiquimod or petrolatum in the morning was administered to the mice in the morning. In the afternoon, 62.5 mg of blank matrix or 1.2% compound 6 # was smeared on the back.
Recording: Before modeling in the morning, the condition of the skin folds, erythema, and scales was observed, scored, and photographed daily, and the mouse PASI score was calculated.

IL4 = experiment: Regulatory effect on cytokine secretion in PHA-stimulated PBMCs: IL4; format: cell-based; settings: for IL4: PBMCs, 15 μg/mL PHA, 24 h (PHA group 9.42)
Description: (§1) • (1) Cells: […]; • (2) Cell plating and treatment: After the PBMCs were taken out from the liquid nitrogen tank and thawed, 80 μL of culture medium was added to a 96-well plate, and the cells were added at 200,000 cells/well. The culture media containing 2 μM or 0.2 μM compound 2 #, compound 6 #, or reference 1 # were added to the 96-well plate at 80 μL, at a final drug concentration of 1 μM or 0.1 μM per well. The plate was let stand for 1 h for pretreatment. After the pretreatment, the drug-containing medium was discarded, and 1 μM or 0.1 μM solution containing 15 μg/mL PHA (phytohemaggluyinin) was added at 80 μL/well. After 24 h of stimulation, the content of cytokines in the culture medium was detected. • Blank control group: The cells were treated with a normal culture medium with no drugs; • PHA group: A culture medium containing 15 μg/mL PHA but no compounds of the present disclosure was added at 80 μL/well.

TNFa = experiment: Regulatory effect on cytokine secretion in PHA-stimulated PBMCs: TNFa; format: cell-based; settings: for TNFa: PBMCs, 15 μg/mL PHA, 24 h (PHA group 3649.21)
Description: as §1

[1] = day 0, before ointment treatment (from day 5)
[2] = day 4, before ointment treatment (from day 5)
[3] = day 6, ointment 50 mg once daily from day 5 (1.2 wt % 2#/6#, 1 wt % benvitimod)
[4] = day 8, ointment 50 mg once daily from day 5 (1.2 wt % 2#/6#, 1 wt % benvitimod)
[5] = day 10, ointment 50 mg once daily from day 5 (1.2 wt % 2#/6#, 1 wt % benvitimod)

Compound	Back AD score (atopic dermatitis; [1])	Back AD score (atopic dermatitis; [2])	Back AD score (atopic dermatitis; [3])	Back AD score (atopic dermatitis; [4])	Back AD score (atopic dermatitis; [5])	PASI score (folds, scales, erythema) (IMQ-induced psoriasis; Day 1)	PASI score (folds, scales, erythema) (IMQ-induced psoriasis; Day 2)	PASI score (folds, scales, erythema) (IMQ-induced psoriasis; Day 3)	PASI score (folds, scales, erythema) (IMQ-induced psoriasis; Day 4)	PASI score (folds, scales, erythema) (IMQ-induced psoriasis; Day 5)	PASI score (folds, scales, erythema) (IMQ-induced psoriasis; Day 6)	PASI score (folds, scales, erythema) (IMQ-induced psoriasis; Day 7)	therapeutic effect versus IMQ+blank matrix group (IMQ-induced psoriasis; day 7, 1.2 wt % in blank matrix)	IL4 (IL4; 0.1 μM) [pg/mL]	inhibitory effect on IL4 relative to reference 1# (benvitimod) (IL4; 1 μM) [folds]	IL4 (IL4; 1 μM) [pg/mL]	TNFa (TNFa; 0.1 μM) [pg/mL]	inhibitory effect on TNFa relative to reference 1# (benvitimod) (TNFa; 1 μM) [folds]	TNFa (TNFa; 1 μM) [pg/mL]
Oc1cc(/C=C/c2ccc(F)cc2)cc(O)c1C1CCCCC1 [Compound 6, (E)-2-cyclohexyl-5-(4-fluorostyryl)-1,3-benzenediol]	0.00 ± 0.00	3.50 ± 0.35	5.56 ± 1.45	6.69 ± 1.64**^a	5.44 ± 1.13**^aab	3.90	4.30	6.10	6.30	6.50	5.80	5.60	significantly superior therapeutic effect	4.62	2	2.75	1433.29	2	810.71
CC(C)c1c(O)cc(/C=C/c2ccccc2)cc1O [Reference 1#, Benvitimod, reference compound]	0.00 ± 0.00	3.63 ± 0.78	7.44 ± 1.07	7.19 ± 1.14	6.81 ± 1.00									9.30		5.63	2559.02		2426.93
